Measured values from patent publication US20230312605A1, “PYRROLO[2,1-F][1,2,4]TRIAZINES AND PREPARATION AND USES THEREOF” (BioSplice Therapeutics, Inc., priority 2021, published 2023).

Target: recombinant DYRK1A kinase (Homo sapiens (Human), UniProt Q13627)
Assay: DYRK1A kinase assay (Ser/Thr 18 peptide Z-lyte FRET assay)
Format: biochemical
Settings: recombinant DYRK1A 0.25 µg/mL, ATP 15 µM, Ser/Thr peptide 18 4 µM, one hour at room temperature; table head prints EC50, method says IC50
Summary of the method: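 Z-lyte FRET format: 1 h room-temperature reaction of 15 µM ATP, 4 µM Ser/Thr 18 peptide and 0.25 µg/mL recombinant human DYRK1A, in duplicate over 11 compound concentrations up to 10 µM. IC50 was derived by non-linear regression of percent phosphorylation calculated from coumarin/fluorescein emission ratios.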

SMILES	EC50 [nM]
CCO[C@H]1CC[C@@H](Nc2ncc3c(-c4cnc5ncccc5c4)ccn3n2)CC1 [Compound 1541]	3
COCCO[C@H]1CC[C@@H](Nc2ncc3c(-c4cnc5ncccc5c4)ccn3n2)CC1 [Compound 1543, N-(cis-4-(2-Methoxyethoxy)cyclohexyl)-5-(1,8-naphthyridin-3-yl)pyrrolo [2,1-f][1,2,4]triazin-2-amine]	2
COCCO[C@H]1CC[C@H](Nc2ncc3c(-c4cnc5ncccc5c4)ccn3n2)CC1 [Compound 1544, N-(trans-4-(2-Methoxyethoxy)cyclohexyl)-5-(1,8-naphthyridin-3-yl)pyrrolo [2,1-f][1,2,4]triazin-2-amine]	5
c1cnc2ncc(-c3ccn4nc(N[C@H]5CC[C@@H](N6CCOCC6)CC5)ncc34)cc2c1 [Compound 1551, N-(cis-4-Morpholinocyclohcxy1)-5-(1,8-naphthyridin-3-yl)pyrrolo[2,1-f] [1,2,4]triazin-2-amine]	38
CN1CCC(Nc2ncc3c(-c4cnc5ncccc5c4)ccn3n2)CC1 [Compound 1557, N-(1 -Methylpiperidin-4-yl)-5-(1,8-naphthyridin-3-yl)pyrrolo [2,1-f] [1,2,4] triazin-2-amine]	18
Cc1nc2ccc(-c3ccn4nc(N[C@H]5C[C@@H](O)C5)ncc34)nc2n1CC(F)F [Compound 1720, cis-3-((5-(3-(2,2-Difluoroethyl)-2-methyl-3H-imidazo [4,5-b]pyridin-5-yl)pyrrolo[2,1-f] [1,2,4]triazin-2-yl)amino)cyclobutan-1-ol]	5
O[C@H]1C[C@@H](Nc2ncc3c(-c4ccc5ncccc5c4)ccn3n2)C1 [Compound 1723, cis-3-((5-(Quinolin-6-yl)pyrrolo[2,1-f][1,2,4]triazin-2-yl)amino)cyclobutan-1-ol]	4
c1cn2cc(-c3ccn4nc(NC5CC6(CNC6)C5)ncc34)cnc2n1 [Compound 1732, 5-(Imidazo[1,2-a]pyrimidin-6-yl)-N-(2-azaspiro[3.3]heptan-6-yl)pyrrolo[2,1-f][1,2,4]triazin-2-amine]	13
c1cnc2ccc(-c3ccn4nc(NC5CC6(CNC6)C5)ncc34)cc2c1 [Compound 1747, 5-(Quinolin-6-yl)-N-(2-azaspiro[3.3]heptan-6-yl)pyrrolo[2,1-f][1,2,4]triazin-2-amine]	3
CC(C)CN1CC2(CC(Nc3ncc4c(-c5cnc6nccn6c5)ccn4n3)C2)C1 [Compound 1756, 5-(Imidazo[1,2-a]pyrimidin-6-yl)-N-(2-isobutyl-2-azaspiro[3.3]heptan-6-yl)pyrrolo [2,1-f][1,2,4]triazin-2-amine]	18
CC(C)CN1CC2(CC(Nc3ncc4c(-c5ccc6ncccc6c5)ccn4n3)C2)C1 [Compound 1771, N-(2-isobutyl-2-azaspiro[3.3]heptan-6-yl)-5-(quinolin-6-yl)pyrrolo[2,1-f] [1,2,4]triazin-2-amine]	5
FC(F)(F)O[C@H]1CC[C@@H](Nc2ncc3c(-c4cnc5nccn5c4)ccn3n2)CC1 [Compound 1780, 5-(Imidazo[1,2-a]pyrimidin-6-yl)-N-(cis-4-(trifluoromethoxy)cyclohexyl) pyrrolo[2,1-f][1,2,4]triazin-2-amine]	7
Cc1nc2ncc(-c3ccn4nc(N[C@H]5CC[C@@H](OC(F)(F)F)CC5)ncc34)cc2n1CC(F)F [Compound 1786, 5-(1-(2,2-Difluoroethyl)-2-methyl-1H-imidazo[4,5-b]pyridin-6-yl)-N-(cis-4-(trifluoromethoxy)cyclohexyl)pyrrolo[2,1-f][1,2,4]triazin-2-amine]	5
Cc1nc2ccc(-c3ccn4nc(N[C@H]5CC[C@@H](OC(F)(F)F)CC5)ncc34)nc2n1CC(F)F [Compound 1792, 5-(3-(2,2-Difluoroethyl)-2-methyl-3H-imidazo[4,5-b]pyridin-5-yl)-N-(cis-4-(trifluoromethoxy)cyclohexyl)pyrrolo[2,1-f][1,2,4]triazin-2-amine]	26
FC(F)(F)O[C@H]1CC[C@@H](Nc2ncc3c(-c4cnc5ncccc5c4)ccn3n2)CC1 [Compound 1798, 5-(1,8-Naphthyridin-3-yl)-N-(cis-4-(trifluoromethoxy)cyclohexyl)pyrrolo [2,1-f][1,2,4]triazin-2-amine]	4
[2H]C([2H])([2H])O[C@H]1CC[C@@H](Nc2ncc3c(-c4cnc5nccn5c4)ccn3n2)CC1 [Compound 1802, 5-(Imidazo[1,2-a]pyrimidin-6-yl)-N-(cis-4-(methoxy-ds)cyclohexyl)pyrrolo [2,1-f][1,2,4] triazin-2-amine]	5
[2H]C([2H])([2H])O[C@H]1CC[C@@H](Nc2ncc3c(-c4ccc5nc(C)n(CC(F)F)c5n4)ccn3n2)CC1 [Compound 1803, 5-(3-(2,2-Difluoroethyl)-2-methyl-3H-imidazo[4,5-b]pyridin-5-yl)-N-(cis-4-(methoxy-d3)cyclohexyl)pyrrolo[2,1-f][1,2,4]triazin-2-amine]	3

SMILES	EC50 [nM]
Cc1nc2ncc(-c3ccn4nc(N[C@H]5C[C@@](C)(O)C5)ncc34)cc2n1CC(F)F [Compound 1813, cis-3-((5-(1-(2,2-Difluoroethyl)-2-methyl-1H-imidazo [4,5-b]pyridin-6-yl)pyrrolo[2,1-f] [1,2,4]triazin-2-yl)amino)-1-methylcyclobutan-1-ol]	4
Cc1nc2ccc(-c3ccn4nc(N[C@H]5C[C@@](C)(O)C5)ncc34)nc2n1CC(F)F [Compound 1819, cis-3-((5-(3-(2,2-Difluoroethyl)-2-methyl-3H-imidazo [4,5-b]pyridin-5-yl)pyrrolo[2,1-f] [1,2,4]triazin-2-yl)amino)-1-methylcyclobutan-1-ol]	3
C[C@]1(O)C[C@@H](Nc2ncc3c(-c4cnc5ncccc5c4)ccn3n2)C1 [Compound 1825, cis-3-((5-(1,8-Naphthyridin-3-yl)pyrrolo[2,1-f][1,2,4]triazin-2-yl)amino)-1-methylcyclobutan-1-ol]	5
C[C@]1(O)CC[C@H](Nc2ncc3c(-c4ccc5nccn5c4)ccn3n2)CC1 [Compound 1828, trans-4-((5-(Imidazo[1,2-a]pyridin-6-yl)pyrrolo[2,1-f][l,2,4]triazin-2-yl)amino) -1-methylcyclohexan-1-ol]	10
Cc1nc2ccc(-c3ccn4nc(N[C@H]5CC[C@@](C)(O)CC5)ncc34)nc2n1CC(C)C [Compound 1829, cis-4-((5-(3-Isobutyl-2-methyl-3H-imidazo[4,5-b]pyridin-5-yl)pyrrolo[2,1-f] [1,2,4]triazin-2-yl)amino)-1-methylcyclohexan-1-ol]	33
Cc1nc2ccc(-c3ccn4nc(N[C@H](C)CO)ncc34)nc2n1CC(F)F [Compound 1830, (R)-2-((5-(3-(2,2-Difluoroethyl)-2-methyl-3H-imidazo[4,5-b]pyridin-5-yl)pyrrolo[2,1-f][1,2,4]triazin-2-yl)amino)propan-1-ol]	16
Cc1nc2ccc(-c3ccn4nc(NC[C@@H](C)O)ncc34)nc2n1CC(F)F [Compound 1831, (R)-1-((5-(3-(2,2-Difluoroethyl)-2-methyl-3H-imidazo[4,5-b]pyridin-5-yl)pyrrolo [2,1-f] [1,2,4]triazin-2-yl)amino)propan-2-ol]	7
Cc1nc2ccc(-c3ccn4nc(NC[C@H](C)O)ncc34)nc2n1CC(F)F [Compound 1832, (S)-1-((5-(3-(2,2-Difluoroethyl)-2-methyl-3H-imidazo[4,5-b]pyridin-5-yl)pyrrolo [2,1-f] [1,2,4]triazin-2-yl)amino)propan-2-ol]	6
Cc1nc2ccc(-c3ccn4nc(NCC(C)(C)O)ncc34)nc2n1CC(F)F [Compound 1833, 1-((5-(3-(2,2-Difluoroethyl)-2-methyl-3H-imidazo[4,5-b]pyridin-5-yl)pyrrolo[2,1-f][1,2,4]triazin-2-yl)amino)-2-methylpropan-2-ol]	8
Cc1nc2ccc(-c3ccn4nc(N[C@H]5C[C@@H](CO)C5)ncc34)nc2n1CC(F)F [Compound 1834, (cis-3-((5-(3-(2,2-Difluoroethyl)-2-methyl-3H-imidazo[4,5-b]pyridin-5-yl)pyrrolo[2,1-f][1,2,4]triazin-2-yl)amino)cyclobutyl)methanol]	3
Cc1nc2ccc(-c3ccn4nc(N[C@H]5C[C@](C)(O)C5)ncc34)nc2n1CC(F)F [Compound 1835, trans-3-((5-(3-(2,2-Difluoroethyl)-2-methyl-3H-imidazo[4,5-b]pyridin-5-yl)pyrrolo[2,1-f][1,2,4]triazin-2-yl)amino)-1-methylcyclobutan-1-ol]	3
Cc1nc2ccc(-c3ccn4nc(NC5CC6(CCN(C)CC6)C5)ncc34)nc2n1CC(F)F [Compound 1836, 5-(3-(2,2-Difluoroethyl)-2-methyl-3H-imidazo[4,5-b]pyridin-5-yl)-N-(7-methyl-7-azaspiro[3.5]nonan-2-yl)pyrrolo[2,1-f][1,2,4]triazin-2-amine]	3
Cc1nc2ccc(-c3ccn4nc(N[C@H]5CC[C@@H](CO)CC5)ncc34)nc2n1CC(F)F [Compound 1837, (cis-4-((5-(3-(2,2-Difluoroethyl)-2-methyl-3H-imidazo[4,5-b]pyridin-5-yl)pyrrolo[2,1-f][1,2,4]triazin-2-yl)amino)cyclohexyl)methanol]	6
Cc1nc2ccc(-c3ccn4nc(N[C@H]5CC[C@@H](OCC(F)F)CC5)ncc34)nc2n1CC(F)F [Compound 1838]	6
Cc1nc2ccc(-c3ccn4nc(N[C@H]5CC[C@@H](OCCO)CC5)ncc34)nc2n1CC(F)F [Compound 1839, 2-((cis-4-((5-(3-(2,2-difluoroethyl)-2-methyl-3H-imidazo[4,5-b]pyridin-5-yl)pyrrolo[2,1-f][1,2,4]triazin-2-yl)amino)cyclohexyl)oxy)ethan-1-ol]	4
Cc1nc2ccc(-c3ccn4nc(N[C@H]5CC[C@](C)(O)CC5)ncc34)nc2n1CC(F)F [Compound 1840, trans-4-((5-(3-(2,2-Difluoroethyl)-2-methyl-3H-imidazo[4,5-b]pyridin-5-yl)pyrrolo[2,1-f][1,2,4]triazin-2-yl)amino)-1-methylcyclohexan-1-ol]	3
